Measured values published in PMC9569839, “Methionine 274 Is Not the Determining Factor for Selective Inhibition of Histone Deacetylase 8 (HDAC8) by L-Shaped Inhibitors” (International Journal of Molecular Sciences, 2022).
Numbering of substitutions follows the chain as printed. Read-outs that look alike come from different tables or passages of the source.

What was measured:
HDAC8wt = molecular target: T1, HDAC8wt (Homo sapiens, UniProt Q9BY41); assay: Enzyme activity assay, IC50 determination with Boc-Lys(TFA)-AMC
T1 sequence (Q9BY41 1-377): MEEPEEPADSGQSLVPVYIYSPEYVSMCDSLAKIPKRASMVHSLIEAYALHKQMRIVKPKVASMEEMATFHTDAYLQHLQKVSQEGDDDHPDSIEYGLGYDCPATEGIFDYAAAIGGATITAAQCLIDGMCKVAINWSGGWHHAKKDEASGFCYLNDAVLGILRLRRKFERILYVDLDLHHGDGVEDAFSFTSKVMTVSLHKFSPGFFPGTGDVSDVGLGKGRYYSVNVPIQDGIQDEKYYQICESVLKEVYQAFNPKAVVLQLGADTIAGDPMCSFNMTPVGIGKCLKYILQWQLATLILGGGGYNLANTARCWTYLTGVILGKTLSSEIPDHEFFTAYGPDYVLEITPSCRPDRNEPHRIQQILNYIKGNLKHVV

HDAC1 = conditions: cited from earlier work
HDAC2 = conditions: cited from earlier work
HDAC6 = conditions: cited from earlier work
HDAC4 = conditions: cited from earlier work
HDAC3 = conditions: read-out: IC50 (HDAC3), cited from earlier work
HDAC8M274A = molecular target: T2, HDAC8M274A (Homo sapiens, UniProt Q9BY41, M274A); assay: Enzyme activity assay, IC50 determination with Boc-Lys(TFA)-AMC
T2 sequence (Q9BY41 1-377 M274A): T1 sequence (Q9BY41 1-377) with M274A

HDAC8 = conditions: cited from earlier work
HDAC10 = conditions: cited from earlier work
HDAC11 = test system: HDAC11; design: method as in Huang et al. [14]; conditions: ref Huang et al. [14]; cited from earlier work
[1] = test system: several cancer cell lines; design: method as in PMID 22907916; conditions: ref [14]; cited from earlier work
[2] = ref Balasubramanian et al. [12]
[3] = TSA value of Figure 1, source not given

For O=C(NO)c1cccc(-c2cn(CSc3ccccc3)nn2)c1 [NCC-149], the IC50 (HDAC8wt) is given as 40 nM, the IC50 (HDAC1; ref Suzuki et al. [13]) is given as 38000 nM and the IC50 (HDAC2; ref Suzuki et al. [13]) is given as greater than 100000 nM. For the same molecule, the IC50 (HDAC6; ref Suzuki et al. [13]) was 2400 nM, the IC50 (HDAC4; ref Suzuki et al. [13]) was 44000 nM and the IC50 (HDAC3; ref Suzuki et al. [13]) was greater than 68000 nM. For the same molecule, the IC50 (HDAC8M274A) was 300 nM.
For O=C(CCCCCCC(=O)Nc1ccccc1)NO [SAHA, suberoylanilide hydroxamic acid], the IC50 (HDAC6; [2]) is given as 17 nM.
In the case of CC(/C=C/C(=O)NO)=C\[C@@H](C)C(=O)c1ccc(N(C)C)cc1 [TSA, trichostatin A], the IC50 (HDAC8; read-out: IC50 (HDAC8), TSA value of Figure 1, source not given) is given as 360 nM, the IC50 (HDAC1; [3]) is given as […] and the IC50 (HDAC2; [3]) is given as […]. For the same molecule, the IC50 (HDAC6; [3]) was 17 nM and the IC50 (HDAC4; [3]) was 3300 nM.
For COc1ccc(/C=C/C(=O)NO)c(-c2ccc(-c3ccccc3)cc2)c1 [o-ACHA], the IC50 (HDAC11) is listed as greater than 20000 nM, the IC50 (HDAC1; ref Huang et al. [14]) is listed as 3000 nM and the IC50 (HDAC2; ref Huang et al. [14]) is listed as greater than 20000 nM. For the same molecule, the IC50 (HDAC6; ref Huang et al. [14]) was greater than 20000 nM, the IC50 (HDAC4; ref Huang et al. [14]) was greater than 20000 nM and the IC50 (HDAC10; ref Huang et al. [14]) was greater than 20000 nM. For the same molecule, the antiproliferative effects [1] was “antiproliferative effects against several cancer cell lines” and the IC50 (HDAC3; ref Huang et al. [14]) was 3000 nM.
